Legend:
Type in all cases: physicochemical
[1] = Concentration in saturated dimethyl formamide solution by analytical RP-UHPLC; conditions: room temperature
Experimental: The concentration of the same amino acids in saturated solutions of dimethyl formamide at room temperature was determined by analytical reversed phase ultrahigh pressure liquid chromatography. The values ranged from below 200 mg/ml for Fmoc-Pro-OH over around 400 mg/ml for Fmoc-Ala-OH to above 600 mg/ml for Fmoc-Gly-OH.

[2] = Flowability of amino acid derivative powders in confined state (annular shear cell, Evolution Powder Tester, pre-consolidation); conditions: tests with confinement, densified with pre-consolidation forces
Experimental: (§1) The flowability of 15 samples of amino acid powders was tested. The flowability of each powder in unconfined state was assessed by powder flow analysis in a rotating drum (“revolution analyzer”), by testing mass flow through a funnel, and by determining the angle of repose. The latter two measurements were performed according to chapter 1174 of the U.S. Pharmacopeia. The flowability of the samples at a confided state was analyzed by measurements with an annular shear cell and by using the Evolution Powder Tester device by PS Prozesstechnik GmbH, Basel. In these tests, the samples were initially densified with different pre-consolidation forces.

[3] = Flowability of amino acid derivative powders in unconfined state (rotating drum, mass flow through a funnel, angle of repose); conditions: powder, tests without confinement
Experimental: as §1

Row | SMILES | concentration in saturated solution [1] | flowability [2] | flowability [3]
1 | C[C@H](NC(=O)OCC1c2ccccc2-c2ccccc21)C(=O)O [Fmoc-Ala-OH] | around 400 mg/ml | Medium values | poor flowability parameters
2 | O=C(N[C@@H](CSC(c1ccccc1)(c1ccccc1)c1ccccc1)C(=O)O)OCC1c2ccccc2-c2ccccc21 [Fmoc-Cys(Trt)-OH] |  | good flowability | good flowability
3 | O=C(O)CNC(=O)OCC1c2ccccc2-c2ccccc21 [Fmoc-Gly-OH] | above 600 mg/ml | poor flowability | good
4 | CC(C)(C)OC(=O)NCCCC[C@H](NC(=O)OCC1c2ccccc2-c2ccccc21)C(=O)O [Fmoc-Lys(Boc)-OH] |  | poor flowability | 
5 | CSCC[C@H](NC(=O)OCC1c2ccccc2-c2ccccc21)C(=O)O [Fmoc-Met-OH] |  |  | good flowability
6 | O=C(O)[C@@H]1CCCN1C(=O)OCC1c2ccccc2-c2ccccc21 [Fmoc-Pro-OH] | below 200 mg/ml | good flowability | poor flowability parameters
